This passage reports Activity and activity results from ChEMBL document CHEMBL2074303, “Transport of the glutathione conjugate of ethacrynic acid by the human multidrug resistance protein MRP” (FEBS Lett, 1996).

For data set [1], the target named is Multidrug resistance-associated protein 1 (Homo sapiens, UniProt P33527). Put plainly: TP_TRANSPORTER: inhibition of DNP-SG uptake (DNP-SG: 10 uM, Glutathione S-conjugate of ethacrynic acid: 10uM) in membrane vesicles from S1(MRP) cells. It is filed as functional, cell membranes, Membrane vesicle. Details: scale not given: the % may be the effect or the level left.

The target of data set [2] is Multidrug resistance-associated protein 1 (MRP1) (Homo sapiens, UniProt P33527). Put plainly: TP_TRANSPORTER: inhibition of DNP-SG uptake (DNP-SG: 10 uM, 4-Glutathionyl cyclophosphamide: 1000uM) in membrane vesicles from S1(MRP) cells. It is filed as functional, cell membranes, Membrane vesicle. Details: scale not given: the % may be the effect or the level left. The settings on record: probe DNP-SG, read-out: Activity.
Sequence of Multidrug resistance-associated protein 1 (MRP1) (P33527 whole entry): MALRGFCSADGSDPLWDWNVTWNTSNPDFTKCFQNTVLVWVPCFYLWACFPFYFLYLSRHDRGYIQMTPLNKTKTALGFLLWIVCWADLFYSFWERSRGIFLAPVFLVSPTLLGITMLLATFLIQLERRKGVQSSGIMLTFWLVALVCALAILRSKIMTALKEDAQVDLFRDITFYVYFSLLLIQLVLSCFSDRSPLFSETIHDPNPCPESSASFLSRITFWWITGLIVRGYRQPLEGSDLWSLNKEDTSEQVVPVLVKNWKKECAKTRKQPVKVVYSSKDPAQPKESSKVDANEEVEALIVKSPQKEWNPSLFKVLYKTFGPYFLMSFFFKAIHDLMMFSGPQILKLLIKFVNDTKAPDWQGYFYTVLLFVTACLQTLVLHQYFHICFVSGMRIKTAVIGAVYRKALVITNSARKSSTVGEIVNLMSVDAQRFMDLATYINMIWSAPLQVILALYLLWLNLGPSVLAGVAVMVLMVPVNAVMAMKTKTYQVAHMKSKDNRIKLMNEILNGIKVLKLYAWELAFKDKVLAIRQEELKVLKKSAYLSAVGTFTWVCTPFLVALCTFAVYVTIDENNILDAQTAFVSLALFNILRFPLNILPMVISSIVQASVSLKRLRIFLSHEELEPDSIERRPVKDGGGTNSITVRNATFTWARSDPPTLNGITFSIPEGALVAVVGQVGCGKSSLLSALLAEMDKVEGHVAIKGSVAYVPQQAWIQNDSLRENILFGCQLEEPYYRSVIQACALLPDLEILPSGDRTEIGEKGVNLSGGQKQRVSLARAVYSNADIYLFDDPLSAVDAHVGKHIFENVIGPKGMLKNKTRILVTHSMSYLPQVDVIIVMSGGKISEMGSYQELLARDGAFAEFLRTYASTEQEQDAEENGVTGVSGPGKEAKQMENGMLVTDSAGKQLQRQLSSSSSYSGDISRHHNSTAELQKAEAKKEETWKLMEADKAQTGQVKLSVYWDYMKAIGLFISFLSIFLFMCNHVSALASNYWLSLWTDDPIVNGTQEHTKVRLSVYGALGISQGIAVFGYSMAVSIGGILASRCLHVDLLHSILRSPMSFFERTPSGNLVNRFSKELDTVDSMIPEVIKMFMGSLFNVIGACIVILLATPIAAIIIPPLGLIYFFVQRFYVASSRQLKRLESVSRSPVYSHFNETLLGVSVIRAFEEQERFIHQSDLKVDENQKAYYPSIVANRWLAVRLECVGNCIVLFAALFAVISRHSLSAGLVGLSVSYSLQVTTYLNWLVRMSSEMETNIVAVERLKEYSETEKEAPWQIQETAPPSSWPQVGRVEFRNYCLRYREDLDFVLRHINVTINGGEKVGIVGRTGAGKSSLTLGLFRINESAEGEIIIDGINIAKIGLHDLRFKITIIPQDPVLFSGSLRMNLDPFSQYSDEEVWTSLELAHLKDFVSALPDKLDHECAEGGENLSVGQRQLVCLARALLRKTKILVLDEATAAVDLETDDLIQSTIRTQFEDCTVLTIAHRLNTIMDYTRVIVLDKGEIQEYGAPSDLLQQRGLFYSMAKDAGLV

Sequence of Multidrug resistance-associated protein 1 (P33527 whole entry): as above

In turn, `CCC(CSC[C@@H](NC(=O)CC[C@H](N)C(=O)O)C(=O)NCC(=O)O)C(=O)c1ccc(OCC(=O)O)c(Cl)c1Cl` (some centres not stated) showed an Activity in data set [1] of 4%.

With `NC(CCC(=O)NC(CSC1CCOP(=O)(N(CCCl)CCCl)N1)C(=O)NCC(=O)O)C(=O)O` (configuration not stated), in data set [2], the activity at 1000 µM came to 44%.
